Measurements taken from patent US20250026746A1, “ENHANCERS OF PARTICULATE GUANYLYL CYCLASE RECEPTOR A” (Mayo Foundation for Medical Education and Research, priority 2021, published 2025).

Columns and labels:
Format in all cases: cell-based
[1] = test system: Primary Human cardiomyocytes; test: cGMP levels (ELISA) in human cardiomyocytes; settings: acetate salt, ANP (10^-10 M); for cGMP generation in HCMs in the presence of ANP: 1 or 10 μM, vs vehicle
Experimental: Primary Human cardiomyocytes (HCMs: Catalog No. 6200, Lot No. 6288, PromoCell) were maintained and subcultured according to the manufacturer's protocols. Passage 5 was used in the study. Treatment buffer, Compound 3, Compound 1 and Compound 2 acetate salt, ANP, and vehicle were prepared as described above. Briefly, 5×10^5 of cells/well were grown in 6-well plates until 80 to 90% confluency and were then pretreated with vehicle or Compound 3, Compound 1 or Compound 2 at doses of 1 or 10 μM for 5 min at 37° C., then cells were treated with ANP (10^-10 M) for an additional 10 min at 37° C. Afterward, all cells were washed with PBS once and lysed with 0.1 M HCl at room temperature, and intracellular cGMP levels were measured in the lysate using a commercial cGMP ELISA kit (Enzo Life Sciences) with the acetylation method as instructed by the manufacturer.

human GC-A = target: T1, human GC-A (Homo sapiens, UniProt P16066); test: cGMP levels (ELISA) in HEK293 cells overexpressing human GC-A; settings: acetate salt; for cGMP generation in the presence of ANP: ANP (10^−10 M)
T1 construct: host or cells: HEK293
T1 sequence (P16066 33-1061): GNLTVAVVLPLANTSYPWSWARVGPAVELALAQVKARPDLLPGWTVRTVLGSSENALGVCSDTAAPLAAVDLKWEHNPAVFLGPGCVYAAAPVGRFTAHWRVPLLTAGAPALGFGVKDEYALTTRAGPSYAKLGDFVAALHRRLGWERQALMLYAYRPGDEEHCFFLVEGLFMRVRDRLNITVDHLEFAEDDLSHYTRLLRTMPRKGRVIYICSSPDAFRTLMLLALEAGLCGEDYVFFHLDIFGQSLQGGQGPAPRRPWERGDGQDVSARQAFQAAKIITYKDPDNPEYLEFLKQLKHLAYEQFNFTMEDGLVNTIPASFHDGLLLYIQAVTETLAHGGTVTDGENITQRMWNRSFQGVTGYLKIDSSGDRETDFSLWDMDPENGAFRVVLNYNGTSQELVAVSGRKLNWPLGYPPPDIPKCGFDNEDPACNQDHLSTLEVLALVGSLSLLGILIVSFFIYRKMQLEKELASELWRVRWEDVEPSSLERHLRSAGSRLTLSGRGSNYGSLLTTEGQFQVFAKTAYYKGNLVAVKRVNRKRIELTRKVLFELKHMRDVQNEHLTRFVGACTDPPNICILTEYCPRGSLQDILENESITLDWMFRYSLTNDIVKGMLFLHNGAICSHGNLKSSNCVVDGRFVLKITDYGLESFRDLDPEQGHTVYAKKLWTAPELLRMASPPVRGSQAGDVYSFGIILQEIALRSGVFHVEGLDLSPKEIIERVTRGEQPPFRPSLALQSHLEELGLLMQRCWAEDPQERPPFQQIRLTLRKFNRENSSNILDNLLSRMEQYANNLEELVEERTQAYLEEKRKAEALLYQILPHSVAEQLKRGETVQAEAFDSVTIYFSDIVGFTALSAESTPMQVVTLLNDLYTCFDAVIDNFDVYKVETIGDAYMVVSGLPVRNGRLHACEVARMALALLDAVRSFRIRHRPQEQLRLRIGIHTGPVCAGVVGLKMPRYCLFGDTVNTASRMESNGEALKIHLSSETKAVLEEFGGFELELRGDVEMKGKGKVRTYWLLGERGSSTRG
T1 sequence (P01160 124-151 partner limits assumed): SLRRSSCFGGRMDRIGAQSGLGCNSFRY
Experimental: HEK293 GC-A cells were seeded in 48-well plates (1×10^5 cell per well) and cultured overnight to reach 80-90% confluency. The treatment buffer that consists of Hank's Balanced Salt Solution (HBSS), 0.1% BSA, 2 mM HEPES and 0.5 mM 3-isobutyl-1-methylzanthine (IBMX—a non-specific phosphodiesterase inhibitor), was used in all experiments. Compound 3, Compound 1, and Compound 2 acetate salt were dissolved in DMSO and ANP was dissolved in phosphate buffered solution (PBS). On the experimental day, growth media was replaced with treatment buffer and HEK293 GC-A cells were 1) treated with Compound 3, Compound 1 or Compound 2 at doses of 1 or 10 μM (reaching a final concentration of 0).1% DMSO) alone for 5 min at 37° C.: or 2) pretreated with Compound 3, Compound 1 or Compound 2 at doses of 1 or 10 μM (reaching a final concentration of 0.1% DMSO) for 5 min at 37° C., followed by a treatment with ANP (10^-10 M) for additional 10 min at 37° C. HEK293 GC-A cells were also treated with vehicle (0.1% DMSO) which served as a negative control. Then all cells were washed with PBS once and lysed with 0.1M HCl. Intracellular cGMP was measured in the lysate using a commercial cGMP ELISA kit (Enzo Life Sciences, Farmingdale, NY) as instructed by the manufacturer.

human pGC-A = target: T2, human pGC-A (Homo sapiens, UniProt P16066); test: Positive allosteric modulation of pGC-A-mediated cGMP production, HTRF competition assay (Example 1); settings: free base; for EC50: HEK 293 human pGC-A expressing cells, presence of EC30 ANP (1.3 pM), average of 3 independent experiments, read-out: pEC50 cGMP response (converted)
T2 construct: expressed in transfected cells; host or cells: HEK293
T2 sequence (P16066 33-1061): T1 sequence (P16066 33-1061)
T2 sequence (P01160 124-151 partner limits assumed): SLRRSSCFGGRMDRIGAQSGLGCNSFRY
Experimental: Test compounds at 10 mM DMSO stock concentration were added to 384 well assay plates using Tecan dispenser starting at 40 μM concentration and diluted 2-fold for 10-point concentration-response curves. Wells were backfilled with DMSO such that the final concentration of DMSO in all wells was maintained at 0.3% DMSO. Positive allosteric modulation (presence of EC30 concentration of ANP at 1.3 pM) of pGC-A-mediated activation of cGMP production was measured in human pGC-A overexpressing HEK293 cells by homogenous time-resolved florescence (HTRF) competition assay using cGMP CisBio detection kit (Cat #: 62GM2PEC). Enantiomerically pure(S)-N-(4,6-difluorobenzo[d]thiazol-2-yl)-1-(2-(dimethylamino)ethyl) piperidine-3-carboxamide and (R)-N-(4,6-difluorobenzo[d]thiazol-2-yl)-1-(2-(dimethylamino)ethyl) piperidine-3-carboxamide were individually synthesized from enantiomerically pure starting materials (R- and S-nipecotic acid).

| Structure (SMILES) | cGMP generation in HCMs in the presence of ANP [1] | cGMP generation in the presence of ANP (human GC-A; 1 or 10 μM) | EC50 (human pGC-A) | cGMP generation in HCMs, Compound 1 compared with Compound 2 ([1]; both doses) | cGMP generation in the presence of ANP, Compound 1 compared with Compound 2 (human GC-A; both doses (1 and 10 μM), ANP (10^-10 M)) | fold more potent than the R-enantiomer (compound 2) (human pGC-A; presence of ANP) | cGMP generation, compound alone (human GC-A; 1 or 10 μM, without ANP, vs vehicle) |
| --- | --- | --- | --- | --- | --- | --- | --- |
| CN(C)CCN1CCC[C@@H](C(=O)Nc2nc3c(F)cc(F)cc3s2)C1 [Compound 2, (R)-N-(4,6-difluorobenzo[d]thiazol-2-yl)-1-(2-(dimethylamino)ethyl) piperidine-3-carboxamide] | increased cGMP levels in a dose dependent manner | dose response increase | 1260 nM | – | – | – | – |
| CN(C)CCN1CCC[C@H](C(=O)Nc2nc3c(F)cc(F)cc3s2)C1 [Compound 1, (S)-N-(4,6-difluorobenzo[d]thiazol-2-yl)-1-(2-(dimethylamino)ethyl) piperidine-3-carboxamide] | increased cGMP levels in a dose dependent manner | dose response increase | 398 nM | more potent | higher | 3.5 fold | – |
| CN(C)CCN1CCCC(C(=O)Nc2nc3c(F)cc(F)cc3s2)C1 (racemic) [Compound 3, N-(4,6-difluorobenzo[d]thiazol-2-yl)-1-(2-(dimethylamino)ethyl) piperidine-3-carboxamide] | – | dose dependent increase | – | – | – | – | no effect |
